Assays:
human σ1 receptor = biological target: T1, human σ1 receptor (Homo sapiens, UniProt Q99720); assay: Human σ1 receptor radioligand assay ([3H](+)-pentazocine); conditions: transfected HEK-293 membranes, 5 nM [3H](+)-pentazocine, 37° C. 120 minutes; read-out: Binding σ-1
T1 construct: expressed in transfected cells; host or cells: HEK-293
Method: Transfected HEK-293 membranes (7 μg) were incubated with 5 nM of [^3H](+)-pentazocine in assay buffer containing Tris-HCl 50 mM at pH 8. NBS (non-specific binding) was measured by adding 10 μM haloperidol. The binding of the test compound was measured at either one concentration (% inhibition at 1 or 10 μM) or five different concentrations to determine affinity values (Ki). Plates were incubated at 37° C. for 120 minutes. After the incubation period, the reaction mix was then transferred to MultiScreen HTS, FC plates (Millipore), filtered and plates were washed 3 times with ice-cold 10 mM Tris-HCL (pH 7.4). Filters were dried and counted at approximately 40% efficiency in a MicroBeta scintillation counter (Perkin-Elmer) using EcoScint liquid scintillation cocktail.

human σ2/TMEM97 receptor = biological target: T2, human σ2/TMEM97 receptor (Homo sapiens, UniProt Q5BJF2); assay: Binding assay to human σ2/TMEM97 receptor ([3H]-DTG); conditions: transfected HEK-293 membranes, 10 nM [3H]-DTG, 25° C. 120 minutes; read-out: Binding σ-2
T2 construct: expressed in transfected cells; host or cells: HEK-293
Method: Transfected HEK-293 membranes (15 μg) were incubated with 10 nM [^3H]-1,3-Di-o-tolylguanidine (DTG) in assay buffer containing Tris-HCl 50 mM at pH 8.0. NSB (non-specific binding) was measured by adding 10 μM haloperidol. The binding of the test compound was measured at either one concentration (% inhibition at 1 or 10 μM) or five different concentrations to determine affinity values (Ki). Plates were incubated at 25° C. for 120 minutes. After the incubation period, the reaction mix was transferred to MultiScreen HTS, FC plates (Millipore), filtered and washed 3 times with ice-cold 10 mM Tris-HCL (pH 8.0). Filters were dried and counted at approximately 40% efficiency in a MicroBeta scintillation counter (Perkin-Elmer) using EcoScint liquid scintillation cocktail.

T1 sequence (Q99720 whole entry): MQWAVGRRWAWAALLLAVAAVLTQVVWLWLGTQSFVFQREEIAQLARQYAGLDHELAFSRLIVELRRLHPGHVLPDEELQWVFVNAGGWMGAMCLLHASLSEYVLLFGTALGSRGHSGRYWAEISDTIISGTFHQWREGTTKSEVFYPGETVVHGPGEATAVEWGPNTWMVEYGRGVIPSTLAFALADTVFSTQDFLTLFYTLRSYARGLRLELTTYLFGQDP
T2 sequence (Q5BJF2 whole entry): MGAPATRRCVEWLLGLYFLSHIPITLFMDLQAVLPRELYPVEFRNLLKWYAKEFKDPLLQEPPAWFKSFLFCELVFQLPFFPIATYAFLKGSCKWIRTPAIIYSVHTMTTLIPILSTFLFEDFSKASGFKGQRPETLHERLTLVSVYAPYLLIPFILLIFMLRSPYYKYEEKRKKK

Row | Structure (SMILES) | Ki (human σ1 receptor) [nM] | Ki (human σ2/TMEM97 receptor) [nM]
1 | Cc1cc(-c2cnc(C3CC3)nc2C2CCN(CC(=O)N3CCOCC3)CC2)on1 [Example 1, 2-(4-(2-Cyclopropyl-5-(3-methylisoxazol-5-yl)pyrimidin-4-yl)piperidin-1-yl)-1-morpholinoethanone] | 500 to 1000 | < 100
2 | Cc1cc(-c2cnc(C(C)C)nc2C2CCN(CC(=O)N3CCOCC3)CC2)on1 [Example 2, 2-(4-(2-Isopropyl-5-(3-methylisoxazol-5-yl)pyrimidin-4-yl)piperidin-1-yl)-1-morpholinoethanone] | > 1000 | < 100
3 | CCc1ncc(-c2cc(C)no2)c(C2CCN(CC(=O)N3CCCOCC3)CC2)n1 [Example 3, 2-(4-(2-Ethyl-5-(3-methylisoxazol-5-yl)pyrimidin-4-yl)piperidin-1-yl)-1-(1,4-oxazepan-4-yl)ethanone] | > 1000 | < 100
4 | CCc1ncc(-c2cc(C)no2)c(C2CCN(CC(=O)N3CCC4(CCOC4)CC3)CC2)n1 [Example 4, 2-(4-(2-Ethyl-5-(3-methylisoxazol-5-yl)pyrimidin-4-yl)piperidin-1-yl)-1-(2-oxa-8-azaspiro[4.5]decan-8-yl)ethanone] | > 1000 | < 100
5 | CCc1ncc(-c2cc(C)no2)c(C2CCN(CC(=O)N3CCOCC3)CC2)n1 [Example 5, 2-(4-(2-Ethyl-5-(3-methylisoxazol-5-yl)pyrimidin-4-yl)piperidin-1-yl)-1-morpholinoethanone] | > 1000 | < 100
6 | CCc1ncc(-c2cc(C)no2)c(C2CCN(CC(=O)N3CCC(F)(F)CC3)CC2)n1 [Example 6, 1-(4,4-Difluoropiperidin-1-yl)-2-(4-(2-ethyl-5-(3-methylisoxazol-5-yl)pyrimidin-4-yl)piperidin-1-yl)ethanone] | 500 to 1000 | < 100
7 | CCc1ncc(-c2cc(C)no2)c(C2CCN(CC(=O)N3CCCN(C)CC3)CC2)n1 [Example 7, 2-(4-(2-Ethyl-5-(3-methylisoxazol-5-yl)pyrimidin-4-yl)piperidin-1-yl)-1-(4-methyl-1,4-diazepan-1-yl)ethanone] | > 1000 | < 100
8 | Cc1cc(-c2cnc(C(F)(F)F)nc2C2CCN(CC(=O)N3CCOCC3)CC2)on1 [Example 8, 2-(4-(5-(3-Methylisoxazol-5-yl)-2-(trifluoromethyl)pyrimidin-4-yl)piperidin-1-yl)-1-morpholinoethanone] | > 1000 | < 100
9 | CCc1ncc(-c2cc(C)no2)c(C2CCN(CCC(=O)N3CCOCC3)CC2)n1 [Example 9, 3-(4-(2-Ethyl-5-(3-methylisoxazol-5-yl)pyrimidin-4-yl)piperidin-1-yl)-1-morpholinopropan-1-one] | > 1000 | < 100
10 | CCc1ncc(-c2cc(C)no2)c(C2CCN(CCN3CCOCC3)CC2)n1 [Example 10, 4-(2-(4-(2-Ethyl-5-(3-methylisoxazol-5-yl)pyrimidin-4-yl)piperidin-1-yl)ethyl)morpholine] | 100 to 500 | < 100
11 | CCc1ncc(-c2cc(C)no2)c(C2CCN(CC(=O)N3CCCCC3)CC2)n1 [Example 11, 2-(4-(2-Ethyl-5-(3-methylisoxazol-5-yl)pyrimidin-4-yl)piperidin-1-yl)-1-(piperidin-1-yl)ethan-1-one] | 500 to 1000 | < 100
12 | CCCc1ncc(-c2cc(C)no2)c(C2CCN(CC(=O)N3CCOCC3)CC2)n1 [Example 12, 2-(4-(5-(3-Methylisoxazol-5-yl)-2-propylpyrimidin-4-yl)piperidin-1-yl)-1-morpholinoethan-1-one] | > 1000 | < 100
13 | CCc1ncc(-c2ccccn2)c(C2CCN(CC(=O)N3CCOCC3)CC2)n1 [Example 13, 2-(4-(2-Ethyl-5-(pyridin-2-yl)pyrimidin-4-yl)piperidin-1-yl)-1-morpholinoethan-1-one] | > 1000 | 100 to 500
14 | CCc1ncc(-c2cccc(C)n2)c(C2CCN(CC(=O)N3CCOCC3)CC2)n1 [Example 14, 2-(4-(2-Ethyl-5-(6-methylpyridin-2-yl)pyrimidin-4-yl)piperidin-1-yl)-1-morpholinoethan-1-one] | > 1000 | 100 to 500
15 | CCc1ncc(-c2ccncc2)c(C2CCN(CC(=O)N3CCOCC3)CC2)n1 [Example 15, 2-(4-(2-Ethyl-5-(pyridin-4-yl)pyrimidin-4-yl)piperidin-1-yl)-1-morpholinoethan-1-one] | 500 to 1000 | 500 to 1000
16 | CCc1ncc(-c2nccn2C)c(C2CCN(CC(=O)N3CCOCC3)CC2)n1 [Example 16, 2-(4-(2-Ethyl-5-(1-methyl-1H-imidazol-2-yl)pyrimidin-4-yl)piperidin-1-yl)-1-morpholinoethan-1-one] | > 1000 | 500 to 1000
17 | CCc1ncc(-c2cc(C)no2)c([C@@H]2CCCN(CC(=O)N3CCOCC3)CC2)n1 [Example 17, (R)-2-(4-(2-Ethyl-5-(3-methylisoxazol-5-yl)pyrimidin-4-yl)azepan-1-yl)-1-morpholinoethan-1-one] | 100 to 500 | 100 to 500
18 | CCc1ncc(-c2cc(C)no2)c([C@H]2CCCN(CC(=O)N3CCOCC3)CC2)n1 [Example 18, (S)-2-(4-(2-Ethyl-5-(3-methylisoxazol-5-yl)pyrimidin-4-yl)azepan-1-yl)-1-morpholinoethan-1-one] | 500 to 1000 | < 100
19 | Cc1ccc(-c2ccnc(C)n2)c(C2CCN(CC(=O)N3CCOCC3)CC2)n1 [Example 19, 2-(4-(6-Methyl-3-(2-methylpyrimidin-4-yl)pyridin-2-yl)piperidin-1-yl)-1-morpholinoethan-1-one] | 500 to 1000 | 500 to 1000

Reference: patent US20240217959A1, “New (Homo)Piperidinyl Heterocycles as Sigma Ligands” (ACONDICIONAMIENTO TARRASENSE, priority 2021, published 2024)
